Earlier results on one compound are cited in patent publication US20200281877A1, “METHOD FOR PREVENTION AND TREATMENT OF ACNE, ECZEMA, PSORIASIS, AND RELATED DERMATOLOGICAL CONDITIONS WITH COMPOSITION COMPRISING A SPHINGOLIPID AND SULPHUR COMPOUNDS” (priority 2018, published 2020).

The data set deals with SA_SCD (sphingolipid ceramide N-deacylase).

Regarding `[Zn+2]` [bivalent zinc (Zn^2+)], the “hydrolytic activity of SA_SCD” value (optimal pH 6.0) is “strongly inhibited”. Also, the “synthetic activity of SA_SCD” value (optimal pH 7.5) is “strongly inhibited”.
